Measurements: US20220062240A1, “METHODS OF TREATING CANCER USING A CLK INHIBITOR” (BioSplice Therapeutics, Inc., priority 2018, published 2022)
Like-named read-outs stand apart in the source and are kept apart here. Values belong to the compound of their own block, whether it stands above or below them.

Columns and labels:
BT-549 = assay: CellTiter-Glo Viability Assay, breast cancer; assay type: cell-based; conditions: Homo sapiens, 96 h; BT-549, breast cancer, four days; read-out: EC50
CAMA1 = assay: CellTiter-Glo Viability Assay, breast cancer; assay type: cell-based; conditions: Homo sapiens, CAMA-1, 96 h; CAMA1, breast cancer, four days; read-out: EC50
DU4475 = assay: CellTiter-Glo Viability Assay, breast cancer; assay type: cell-based; conditions: Homo sapiens, DU-4475, 96 h; DU4475, breast cancer, four days; read-out: EC50
HCC1599 = assay: CellTiter-Glo Viability Assay, breast cancer; assay type: cell-based; conditions: Homo sapiens, 96 h; HCC1599, breast cancer, four days; read-out: EC50
MCF7 = assay: CellTiter-Glo Viability Assay, breast cancer; assay type: cell-based; conditions: Homo sapiens, 96 h; MCF7, breast cancer, four days; read-out: EC50
MDA-MB-231-Luc = assay: CellTiter-Glo Viability Assay, breast cancer; assay type: cell-based; conditions: Homo sapiens, 96 h; MDA-MB-231-Luc, breast cancer, four days; read-out: EC50
T47D = assay: CellTiter-Glo Viability Assay, breast cancer; assay type: cell-based; conditions: Homo sapiens, 96 h, breast cancer, four days, read-out: EC50
ZR-75-1 = assay: CellTiter-Glo Viability Assay, breast cancer; assay type: cell-based; conditions: Homo sapiens, 96 h; ZR-75-1, breast cancer, four days; read-out: EC50
all 50 cell lines = assay: CellTiter-Glo Viability Assay, average across all cell lines; assay type: cell-based; conditions: Homo sapiens; across all 50 cell lines; read-out: average EC50 for inhibition of cancer cell proliferation
How it was run: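 Human cancer cell lines from breast, colorectal, haematopoietic/lymphoid, liver, lung, ovarian, pancreatic and prostate tumours were seeded at 300-3,000 cells/well and exposed to compound in duplicate for four days at 37° C, 5% CO2. Viable cells were measured by ATP luminescence; EC50 values came from dose-response curves.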

[1] = tested on: colorectal cancer (6 cell lines); assay: CellTiter-Glo Viability Assay, colorectal cancer; assay type: cell-based; conditions: Homo sapiens, inhibition of cancer cell proliferation
[2] = tested on: haematopoietic & lymphoid tumors (13 cell lines); assay: CellTiter-Glo Viability Assay, haematopoietic & lymphoid tumors; assay type: cell-based; conditions: Homo sapiens, inhibition of cancer cell proliferation
[3] = tested on: liver cancer (3 cell lines); assay: CellTiter-Glo Viability Assay, liver cancer; assay type: cell-based; conditions: Homo sapiens, inhibition of cancer cell proliferation
[4] = tested on: lung cancer (4 cell lines); assay: CellTiter-Glo Viability Assay, lung cancer; assay type: cell-based; conditions: Homo sapiens, inhibition of cancer cell proliferation
[5] = tested on: ovarian cancer (4 cell lines); assay: CellTiter-Glo Viability Assay, ovarian cancer; assay type: cell-based; conditions: Homo sapiens, inhibition of cancer cell proliferation
[6] = tested on: pancreatic cancer (8 cell lines); assay: CellTiter-Glo Viability Assay, pancreatic cancer; assay type: cell-based; conditions: Homo sapiens, inhibition of cancer cell proliferation
[7] = tested on: prostate cancer (5 cell lines); assay: CellTiter-Glo Viability Assay, prostate cancer; assay type: cell-based; conditions: Homo sapiens
CLK3 = CLK3 (Homo sapiens, UniProt P49761); assay: CLK3 kinase activity assay (Z-lyte, Ser/Thr 18 peptide)
CLK2 = molecular target: T1, CLK2 (Homo sapiens, UniProt P49760); assay: CLK2 kinase activity assay (Z-lyte, Ser/Thr 6 peptide); assay type: biochemical; conditions: recombinant CLK2 kinase, ATP 60 μM; read-out: EC50
T1 construct: purchased Thermo Fisher (Life Technologies), Z'-LYTE Kinase Assay Kits
Procedure: All reactions were performed in duplicate.

[8] = HCT-116, HCT116 cell line, read-out: Colorectal cancer, EC50 (μM) HCT116
[9] = HT-29, HT29 cell line, read-out: Colorectal cancer, EC50 (μM) HT29
[10] = SW-620, SW620 cell line, read-out: Colorectal cancer, EC50 (μM) SW620
[11] = DLD-1 cell line, read-out: Colorectal cancer, EC50 (μM) DLD-1
[12] = SW48 cell line, read-out: Colorectal cancer, EC50 (μM) SW48
[13] = SW480 cell line, read-out: Colorectal cancer, EC50 (μM) SW480
[14] = DND41, DND-41 cell line, read-out: Haematopoietic & Lymphoid tumors, EC50 (μM) DND-41
[15] = MV4-11, MV-4-11 cell line, read-out: Haematopoietic & Lymphoid tumors, EC50 (μM) MV-4-11
[16] = Rec1, REC-1 cell line, read-out: Haematopoietic & Lymphoid tumors, EC50 (μM) REC-1
[17] = SU-DHL-4, SUDHL4 cell line, read-out: Haematopoietic & Lymphoid tumors, EC50 (μM) SUDHL4
[18] = HL-60 cell line, read-out: Haematopoietic & Lymphoid tumors, EC50 (μM) HL-60
[19] = JM1 cell line, read-out: Haematopoietic & Lymphoid tumors, EC50 (μM) JM1
[20] = JURKAT, Clone E6-1 cell line, read-out: Haematopoietic & Lymphoid tumors, EC50 (μM) JURKAT, Clone E6-1
[21] = JeKo-1 cell line, read-out: Haematopoietic & Lymphoid tumors, EC50 (μM) JeKo-1
[22] = KASUMI-1 cell line, read-out: Haematopoietic & Lymphoid tumors, EC50 (μM) KASUMI-1
[23] = Loucy cell line, read-out: Haematopoietic & Lymphoid tumors, EC50 (μM) Loucy
[24] = MOLT-4 cell line, read-out: Haematopoietic & Lymphoid tumors, EC50 (μM) MOLT-4
[25] = TF-1 cell line, read-out: Haematopoietic & Lymphoid tumors, EC50 (μM) TF-1
[26] = TOLEDO cell line, read-out: Haematopoietic & Lymphoid tumors, EC50 (μM) TOLEDO
[27] = SNU-398, SNU398 cell line, read-out: Liver cancer, EC50 SNU398
[28] = HEPG2 cell line, read-out: Liver cancer, EC50 HEPG2
[29] = PLC/PRF/5 cell line, read-out: Liver cancer, EC50 PLC/PRF/5
[30] = A-427, A427 cell line, read-out: Lung cancer, EC50 (μM) A427
[31] = HCC78, HCC-78 cell line, read-out: Lung cancer, EC50 (μM) HCC-78
[32] = NCI-H460 cell line, read-out: Lung cancer, EC50 (μM) NCI-H460
[33] = NCI-H522 cell line, read-out: Lung cancer, EC50 (μM) NCI-H522
[34] = PA-1, PA1 cell line, read-out: Ovarian cancer, EC50 (μM) PA1
[35] = TOV112D, TOV-112D cell line, read-out: Ovarian cancer, EC50 (μM) TOV-112D
[36] = OV-90 cell line, read-out: Ovarian cancer, EC50 (μM) OV-90
[37] = OVCAR-3 cell line, read-out: Ovarian cancer, EC50 (μM) OVCAR-3
[38] = BXPC-3, BxPC3 cell line, read-out: Pancreatic cancer, EC50 BxPC3
[39] = CAPAN-1, Capan1 cell line, read-out: Pancreatic cancer, EC50 Capan1
[40] = Capan-2, Capan2 cell line, read-out: Pancreatic cancer, EC50 Capan2
[41] = MIA PaCa-2 cell line, read-out: Pancreatic cancer, EC50 MIA PaCa-2
[42] = PANC 05.04 cell line, read-out: Pancreatic cancer, EC50 PANC 05.04
[43] = PANC-1 cell line, read-out: Pancreatic cancer, EC50 PANC-1
[44] = UPAFII cell line, read-out: Pancreatic cancer, EC50 UPAFII
[45] = DU-145, read-out: Prostate cancer EC50 Du-145
[46] = PC-3, PC3 cell line, inhibition of cancer cell proliferation, read-out: Prostate cancer EC50 PC3
[47] = 22Rv1 cell line, inhibition of cancer cell proliferation, read-out: Prostate cancer EC50 22Rv1
[48] = LNCap clone FGC cell line, inhibition of cancer cell proliferation, read-out: Prostate cancer EC50 LNCap clone FGC
[49] = VCaP (Sigma) cell line, inhibition of cancer cell proliferation, read-out: Prostate cancer EC50 VCaP (Sigma)

T1 sequence (P49760 whole entry): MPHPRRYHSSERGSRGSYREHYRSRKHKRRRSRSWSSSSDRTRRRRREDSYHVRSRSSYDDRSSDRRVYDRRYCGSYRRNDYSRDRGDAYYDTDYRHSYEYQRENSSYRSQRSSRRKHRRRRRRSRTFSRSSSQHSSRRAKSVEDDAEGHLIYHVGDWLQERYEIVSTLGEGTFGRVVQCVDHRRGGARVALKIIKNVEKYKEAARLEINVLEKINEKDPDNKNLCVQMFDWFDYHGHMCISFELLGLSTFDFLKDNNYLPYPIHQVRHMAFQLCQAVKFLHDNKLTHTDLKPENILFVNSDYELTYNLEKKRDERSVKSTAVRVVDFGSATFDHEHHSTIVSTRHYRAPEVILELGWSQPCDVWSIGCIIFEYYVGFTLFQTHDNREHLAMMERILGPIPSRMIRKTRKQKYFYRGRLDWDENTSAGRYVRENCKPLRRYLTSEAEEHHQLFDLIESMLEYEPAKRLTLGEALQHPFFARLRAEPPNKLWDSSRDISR
Chain of CLK3 (P49761 whole entry): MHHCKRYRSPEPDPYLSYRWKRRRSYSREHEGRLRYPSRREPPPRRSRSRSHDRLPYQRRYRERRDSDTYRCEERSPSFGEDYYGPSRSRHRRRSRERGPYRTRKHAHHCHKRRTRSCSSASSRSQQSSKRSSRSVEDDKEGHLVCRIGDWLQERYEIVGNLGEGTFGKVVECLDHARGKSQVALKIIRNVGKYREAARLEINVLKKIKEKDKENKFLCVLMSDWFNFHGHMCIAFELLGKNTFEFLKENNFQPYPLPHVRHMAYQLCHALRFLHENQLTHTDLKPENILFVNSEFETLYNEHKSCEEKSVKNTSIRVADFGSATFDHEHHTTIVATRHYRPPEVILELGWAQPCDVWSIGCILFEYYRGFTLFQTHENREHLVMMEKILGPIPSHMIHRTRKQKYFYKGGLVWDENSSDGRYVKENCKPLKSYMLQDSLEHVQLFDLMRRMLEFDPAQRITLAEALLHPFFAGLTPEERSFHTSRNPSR

- EC50 (BT-549): 473 nM
- EC50 (CAMA1): 345 nM
- EC50 (DU4475): 178 nM
- EC50 (HCC1599): 286 nM
- EC50 (MCF7): 853 nM
- EC50 (MDA-MB-231-Luc): 636 nM
- EC50 (T47D): 730 nM
- EC50 (ZR-75-1): 653 nM
- EC50 [1, 8]: 0.193 µM
- EC50 [1, 9]: 0.666 µM
- EC50 [1, 10]: 0.187 µM
- EC50 [1, 11]: 0.376 µM
- EC50 [1, 12]: 0.132 µM
- EC50 [1, 13]: 0.353 µM
- EC50 [2, 14]: 0.529 µM
- EC50 [2, 15]: 0.077 µM
- EC50 [2, 16]: 0.133 µM
- EC50 [2, 17]: 0.525 µM
- EC50 [2, 18]: 1.24 µM
- EC50 [2, 19]: 0.115 µM
- EC50 [2, 20]: 1.02 µM
- EC50 [2, 21]: 0.141 µM
- EC50 [2, 22]: 0.157 µM
- EC50 [2, 23]: 0.304 µM
- EC50 [2, 24]: 0.689 µM
- EC50 [2, 25]: 0.41 µM
- EC50 [2, 26]: 0.121 µM
- EC50 [3, 27]: 161 nM
- EC50 [3, 28]: 428 nM
- EC50 [3, 29]: 1030 nM
- EC50 [4, 30]: 0.443 µM
- EC50 [4, 31]: 0.997 µM
- EC50 [4, 32]: 0.32 µM
- EC50 [4, 33]: 0.19 µM
- EC50 [5, 34]: 0.27 µM
- EC50 [5, 35]: 0.264 µM
- EC50 [5, 36]: 0.936 µM
- EC50 [5, 37]: 0.1 µM
- EC50 [6, 38]: 1050 nM
- EC50 [6, 39]: 228 nM
- EC50 [6, 40]: 55 nM
- EC50 [6, 41]: 175 nM
- EC50 [6, 42]: 226 nM
- EC50 [6, 43]: 666 nM
- EC50 [6, 44]: 282 nM
- EC50 [7, 45]: 563 nM
- EC50 [7, 46]: 394 nM
- EC50 [7, 47]: 253 nM
- EC50 [7, 48]: 553 nM
- EC50 [7, 49]: 612 nM
- EC50 (CLK3): 61.1 nM
Structure (SMILES): COc1ccc(NC(=O)c2n[nH]c3ccc(-c4cncc(CN5CCCCC5)c4)cc23)cn1 [Compound 59]
- EC50 (all 50 cell lines): 434 nM

- EC50 (CLK2): 3.7 nM
- EC50 (BT-549): 3760 nM
- EC50 (CAMA1): 7760 nM
- EC50 (DU4475): 1020 nM
- EC50 (HCC1599): 240 nM
- EC50 (MCF7): > 10000 nM
- EC50 (MDA-MB-231-Luc): 6790 nM
- EC50 (T47D): 633 nM
- EC50 (ZR-75-1): 6790 nM
- EC50 [1, 8]: 1.88 µM
- EC50 [1, 9]: 5.48 µM
- EC50 [1, 10]: 1.36 µM
- EC50 [1, 11]: 1.35 µM
- EC50 [1, 12]: 0.577 µM
- EC50 [1, 13]: 3.5 µM
- EC50 [2, 14]: 4.78 µM
- EC50 [2, 15]: 0.273 µM
- EC50 [2, 16]: 1.26 µM
- EC50 [2, 17]: 2.56 µM
- EC50 [2, 18]: 4.59 µM
- EC50 [2, 19]: 0.765 µM
- EC50 [2, 20]: 3.73 µM
- EC50 [2, 21]: 0.706 µM
- EC50 [2, 22]: 0.479 µM
- EC50 [2, 23]: 1.96 µM
- EC50 [2, 24]: 5.56 µM
- EC50 [2, 25]: 3.59 µM
- EC50 [2, 26]: 0.886 µM
- EC50 [3, 27]: 2040 nM
- EC50 [3, 28]: 3620 nM
- EC50 [3, 29]: 9900 nM
- EC50 [4, 30]: 4.12 µM
- EC50 [4, 31]: > 10 µM
- EC50 [4, 32]: 5.17 µM
- EC50 [4, 33]: 1.42 µM
- EC50 [5, 34]: 5.95 µM
- EC50 [5, 35]: 1.55 µM
- EC50 [5, 36]: > 10 µM
- EC50 [5, 37]: 2.54 µM
- EC50 [6, 38]: 9040 nM
- EC50 [6, 39]: > 10000 nM
- EC50 [6, 40]: > 10000 nM
- EC50 [6, 41]: 2020 nM
- EC50 [6, 42]: > 10000 nM
- EC50 [6, 43]: > 10000 nM
- EC50 [6, 44]: 6880 nM
- EC50 [7, 45]: 9090 nM
- EC50 [7, 46]: 9340 nM
- EC50 [7, 47]: 1060 nM
- EC50 [7, 48]: 8650 nM
- EC50 [7, 49]: 2020 nM
Structure (SMILES): CN1CCC(Oc2ccc(NC(=O)c3n[nH]cc3/C=C/c3cccnc3)cn2)CC1 [Compound 93]
- EC50 (all 50 cell lines): 4530 nM
